Results as given in patent US20160199499A1, “USES OF PH[…] SYNTHETIC TLR7 AGONISTS” (priority 2013, published 2016).
Where “and” joins values, the source holds several entries; their conditions need not be identical. Equal entries are not always repeated.

Tests used:
[1] = system: CD11c+ dendritic cells; test: In vivo CFSE labeling of dendritic cells, migration to mediastinal lymph nodes (flow cytometry); design: species or system C57BL/6 mice; settings: 1 nmol i.t., 24 h after drug administration
[2] = system: neutrophils in BAL fluids; test: BAL cell counts (Guava cytometer, Wright-Giemsa differential) after i.t. administration; type: in vivo, C57BL/6 mice
[3] = system: Venezuelan equine encephalitis virus (Trinidad Donkey, NR-332); design: species or system BALB/c mice; settings: mouse, in vivo, sc
[4] = system: influenza A/California/04/2009 (H1N1) virus; design: species or system BALB/c mice; settings: mouse, in vivo
[5] = system: West Nile Virus (WNV); test: West Nile virus s.c. infection model; type: in vivo, C57BL/6 mice
[6] = system: Vaccinia virus (IHD strain); design: species or system BALB/c mice; settings: mouse, in vivo
[7] = Particle size in PBS; type: physicochemical
[8] = system: lung parenchyma; test: Lung histology (H&E) after i.t. administration; settings: 1 nmol i.t., 6 and 24 h post treatment
[9] = system: B220+ B cells; test: B cell numbers in lymph nodes after pulmonary administration (flow cytometry); settings: 1 nmol, 7 days post treatment
[10] = Body weight monitoring / maximum tolerated dose after pulmonary administration
[11] = system: cytokines and chemokines in BAL fluids and sera; test: Luminex bead assay of cytokines and chemokines in BAL fluids and sera after pulmonary administration
[12] = 1 nmol i.t., 6 h post-treatment, vs vehicle
[13] = 24 h after pulmonary (i.n.) administration, up to a 4 nmol dose

Compound: CCCCCCCC/C=C\CCCCCCCC(=O)OCC(COP(=O)(O)OCCNC(=O)c1ccc(Cn2c(=O)[nH]c3c(N)nc(OCCOC)nc32)cc1)OC(=O)CCCCCCC/C=C\CCCCCCCC (stereo not shown) [1V270, 2-(4-{[6-Amino-2-(2-methoxyethoxy)-8-oxo-7H-purin-9(8H)-yl]methyl}benzamido)ethyl 2,3-Bis(oleoyloxy)propyl Phosphate]
- CD11c+ DC migration to the mediastinal lymph nodes [1]: enhanced
- cell infiltration and neutrophil recruitment to BAL fluids in MyD88 or TLR7 null mice ([2]; 1 nmol i.t., 24 h, Myd88-/- or Tlr7-/- mice): diminished
- mononuclear cells in BAL fluids ([2]; 1 nmol i.t., 24 h after treatment, also elevated in vehicle-treated mice): slightly elevated
- neutrophil population in BAL fluids ([2]; 1 nmol i.t., 24 h and 48 h after treatment): significant increase
- total cell numbers in the BAL fluids ([2]; 1 nmol i.t., monitored for 72 h): increased over 48 h and declined to near baseline levels 72 h post pulmonary administration
- neutrophil influx dose response ([2]; 24 h post treatment, i.t.): dose responsive between 0.1 to 10 nmol
- mice protected from encephalitis [3]: Eighty
- mice protected from lethal H1N1 pulmonary influenza infection [4]: 100%
- survival compared to placebo-treated mice ([5]; 1 nmol/mouse i.n. at days -3 and -1, WNV s.c. day 0): not significant
- survival compared to placebo-treated mice ([5]; 1 nmol/mouse i.n. on day -1, WNV s.c. day 0 (P≦0.05)): statistically improved
- Mean Day of Death ± SD [6]: 7.2 ± 0.6 days and 8.4 ± 0.5 days and 9.0 days and 8.0 days and 7.3 ± 0.8 days
- Survivors/Total [6]: 0/10 and 10/10*** and 5/10** and 9/10*** and 8/10*** and 3/10*
- body weights during the infection [6]: increased over the first three days before declining
- mice protected from death [6]: 90-100%
- preserving body weight, rank among treatments [6]: best effect in preserving body weight
- particle size ([7]; dispersed in 50 μL PBS): 100-150 nm
- particle size, average ([7]; in PBS, regardless of concentration): about 110 nm
- inflammatory cell infiltration into the lung parenchyma [8]: did not show inflammatory cell infiltration into the lung parenchyma
- B cell number in the cervical, mesenteric and inguinal nodes [9]: did not significantly increase
- B cell number in the draining mediastinal lymph nodes [9]: did not significantly increase
- weight loss in TLR7 null mice ([10]; 75 nmol i.t., Tlr7-/- mice): did not lose weight
- MTD relative to the effective dose ([10]; MTD 75 nmol/animal vs effective dose 1 nmol): 75 times
- weight loss compared to vehicle treated mice ([10]; effective dose (1 nmoles), i.t.): did not cause significant weight loss
- effective dose ([10]; pulmonary route, mice): 1 nmol
- maximum tolerated dose (MTD) ([10]; pulmonary route, mice): 75 nmol/animal
- IL-6 in BAL fluids [11, 12]: significantly increased
- KC in BAL fluids [11, 12]: significantly increased
- MCP-1 in BAL fluids [11, 12]: significantly increased
- IP-10 induction in BAL fluids (surrogate marker of type 1 IFN) ([11]; 1 nmol i.t., monitored up to 72 h): peaked at 24 h and declined to baseline levels 72 h post treatment
- IL-6 in sera [11, 13]: minimal insignificant increase
- TNFα in sera [11, 13]: minimal insignificant increase

Compound: Nc1ccn(C[C@@H](CO)OCP(=O)(O)O)c(=O)n1 [Cidofovir, reference compound]
- Survivors/Total [6]: 10/10
- effects on body weight [6]: superior to treatments with 1V270 that were started on the same day
- mice protected from death [6]: 100%
